# Read-outs that look alike come from different tables or passages of the source.
# What was measured:
# [1] = test system: lipoprotein lipase (LPL) gene; test: LPL mRNA elevating action (RT-PCR quantification of LPL mRNA in C2Cl2 cells); format: cell-based, mouse; conditions: Mus musculus, 24 h, compound 10 μM, ratio relative to the amount of LPL mRNA in cells with DMSO only, read-out: Rate of increase in LPL mRNA
# Summary of the method: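 Read-out is LPL mRNA relative to vehicle (DMSO = 1), measured by reverse transcription and 20-cycle real-time PCR. Cells were the mouse striated-muscle line C2Cl2, treated 24 h with 10 μM compound in DMEM containing 10% FBS.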
# [2] = Solubility in gastric juice or intestinal juice model fluid (precipitation method using DMSO); format: physicochemical; conditions: room temperature
# Summary of the method: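 Dissolved amount (μg/mL) quantified by UV of filtrate versus pre-made calibration curves. Precipitation approach: DMSO solutions spiked into pH 1.2 (JP 1st fluid) or pH 6.8 (JP 2nd fluid) medium, shaken at room temperature for 24 h before insolubles were filtered off.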
# [3] = pH 1.2, simulated gastric fluid, kinetic from dmso stock, 1st fluid for Disintegration Test of Japanese Pharmacopoeia (pH: 1.2), read-out: Solubility (μg/mL) 1st fluid
# [4] = pH 6.8, kinetic from dmso stock, 2nd fluid for Disintegration Test of Japanese Pharmacopoeia (pH: 6.8), read-out: Solubility (μg/mL) 2nd fluid
SMILES,fold induction at 10 µM [1],"solubility at 24 h [2, 3]","solubility at 24 h [2, 4]",melting point,"Solubility (μg/mL) 1st fluid ([2]; 1st fluid for Disintegration Test of Japanese Pharmacopoeia (pH: 1.2), 24 hours)"
COc1cc(-c2[nH]c(C3CCCC(F)(F)C3)nc2Br)ccc1OCc1ccc(C(F)(F)F)cn1 (stereo not shown) [Example 170],3.36,105 µg/mL,1.3 µg/mL,158 to 160 °C,
COc1cc(OCc2ncc(Br)cc2F)ccc1-c1[nH]c(-c2ccc(F)nc2)nc1Cl [Example 175],3.94,10 µg/mL,2.5 µg/mL,122 to 124 °C,
COc1cc(-c2[nH]c(C3CC(F)(F)C3)nc2Br)ccc1OCc1ccc(C(F)(F)F)nc1 [Example 178],3.58,98.5 µg/mL,1.7 µg/mL,168 to 170 °C,
COc1cc(-c2[nH]c(C3CC(F)(F)C3)nc2Cl)ccc1OCc1ccc(C(F)(F)F)nc1 [Example 179],2.66,25.8 µg/mL,2.3 µg/mL,170 to 174 °C,
COc1cc(OCc2ccc(C(F)(F)F)nc2)ccc1-c1[nH]c(C2CC(F)(F)C2)nc1Cl [Example 181],4.53,93.4 µg/mL,< 0.3 µg/mL,199 to 201 °C,
COc1cc(OCc2ccc(C(F)(F)F)cn2)ccc1-c1[nH]c(C2CCCC(F)(F)C2)nc1Cl (stereo not shown) [Example 182],3.41,95.5 µg/mL,1.9 µg/mL,162 to 164 °C,
COc1cc(OCc2ccc(C(F)(F)F)cn2)ccc1-c1[nH]c(C2CCCC(F)(F)C2)nc1Br (stereo not shown) [Example 183],4.26,99 µg/mL,1.1 µg/mL,170 to 171 °C,
COc1cc(OCc2ncccc2C#N)ccc1-c1[nH]c(C2CCC(F)(F)CC2)nc1Cl [Example 185],2.41,87.4 µg/mL,23.1 µg/mL,161 to 162 °C,
COc1cc(OCc2ccc(C(F)(F)F)cn2)ccc1-c1[nH]c(C2CC(F)(F)C2)nc1Cl [Example 188],2.95,86.4 µg/mL,1.9 µg/mL,191 to 193 °C,
COc1cc(-c2[nH]c(C3CCC(F)(F)C3)nc2Cl)ccc1OCc1ccc(C(F)(F)F)cn1 (stereo not shown) [Example 189],3.51,89 µg/mL,11.6 µg/mL,159 to 161 °C,
COc1cc(-c2[nH]c(C3CC(F)(F)C3)nc2Br)ccc1OCc1ccc(C(F)(F)F)cn1 [Example 190],3.58,92.5 µg/mL,2 µg/mL,151 to 157 °C,
COc1cc(-c2[nH]c(C3CC(F)(F)C3)nc2Cl)ccc1OCc1ccc(C(F)(F)F)cn1 [Example 191],4.06,25.9 µg/mL,1.7 µg/mL,201 to 203 °C (dec.),
COc1cc(-c2[nH]c(C3CCC3)nc2Cl)ccc1OCc1ccc(C(F)(F)F)cn1 [Example 193],4.32,86.4 µg/mL,0.8 µg/mL,158 to 170 °C,
COc1cc(-c2[nH]c(C3CCCC3)nc2Cl)ccc1OCc1ccc(C(F)(F)F)cn1 [Example 194],3.92,> 90 µg/mL,0.5 µg/mL,182 to 184 °C (dec.),
COc1cc(OCc2ncccc2C(F)(F)F)ccc1-c1[nH]c(C2CCC(F)(F)CC2)nc1Cl [Example 195],3.34,> 100 µg/mL,0.6 µg/mL,162 to 164 °C,
COc1cc(-c2[nH]c(C3CCC(F)(F)CC3)nc2Br)ccc1OCc1ccc(C(F)(F)F)cn1 [Example 198],6.36,> 109 µg/mL,17.4 µg/mL,158 to 165 °C,

SMILES,fold induction at 10 µM [1],"solubility at 24 h [2, 3]","solubility at 24 h [2, 4]",melting point,"Solubility (μg/mL) 1st fluid ([2]; 1st fluid for Disintegration Test of Japanese Pharmacopoeia (pH: 1.2), 24 hours)"
COc1c(OCc2ccc(C(F)(F)F)nc2)ccc(-c2[nH]c(C3CCC(F)(F)CC3)nc2Br)c1OC [Example 199],5.05,> 115 µg/mL,< 10.2 µg/mL,162 to 165 °C,
COc1c(OCc2ccc(C(F)(F)F)nc2)ccc(-c2[nH]c(C3CCC(F)(F)CC3)nc2Cl)c1OC [Example 200],4.73,98.4 µg/mL,2.4 µg/mL,148 to 150 °C,
COc1cc(-c2[nH]c(C3C4CC5CC(C4)CC3C5)nc2Cl)ccc1OCc1ccc(C(F)(F)F)cn1 (stereo not shown) [Example 201],2.45,90 µg/mL,2.6 µg/mL,238 to 240 °C (dec.),
COc1cc(OCc2ccc(C(F)(F)F)nc2)c(C)cc1-c1[nH]c(-c2ccc(F)nc2)nc1Cl [Example 202],3.15,8.8 µg/mL,< 1.8 µg/mL,213 to 215 °C (dec.),
COc1cc(-c2[nH]c(C3CCC(F)(F)CC3)nc2Cl)ccc1OCc1ccc(C(F)(F)F)nc1 [Example 203],5.47,63.8 µg/mL,< 1.8 µg/mL,164 to 167 °C,
COc1cc(OCc2ccc(C(F)(F)F)nc2)ccc1-c1[nH]c(C2CCC(F)(F)CC2)nc1Cl [Example 204],5.07,> 100 µg/mL,< 8.9 µg/mL,122 to 125 °C,
COc1c(OCc2ccc(C(F)(F)F)cn2)ccc(-c2[nH]c(C3CCC(F)(F)CC3)nc2Cl)c1OC [Example 205],5.41,> 106 µg/mL,< 9.5 µg/mL,175 to 177 °C,
COc1cc(OCc2ncc(C)cc2C)ccc1-c1nc(-c2ccc(F)nc2)[nH]c1Cl [Example 206],2.75,> 88 µg/mL,7 µg/mL,109 to 124 °C,
COc1cc(OC(C)c2ccc(C(F)(F)F)cn2)ccc1-c1nc(-c2ccc(F)nc2)[nH]c1Cl (stereo not shown) [Example 207],2.5,,0.4 µg/mL,166 to 169 °C,83.4 µg/mL
COc1cc(OCc2ccc(C(F)(F)F)cn2)ccc1-c1[nH]c(-c2ccc(Cl)nc2)nc1I [Example 208],4.72,24.9 µg/mL,< 0.4 µg/mL,204 to 208 °C (dec.),
COc1cc(-c2[nH]c(C3CCC(F)(F)CC3)nc2Cl)ccc1OCc1ccc(C(F)(F)F)cn1 [Example 209],5.34,99.4 µg/mL,< 0.4 µg/mL,175 to 177 °C,
COc1cc(OCc2ccc(C(F)(F)F)cn2)ccc1-c1[nH]c(C2CCC(F)(F)CC2)nc1Cl [Example 210],5.69,95.6 µg/mL,1.5 µg/mL,147 to 149 °C,
COc1cc(OCc2coc(C)n2)ccc1-c1nc(-c2ccc(Cl)nc2)[nH]c1Cl [Example 211],2.55,84.7 µg/mL,2.2 µg/mL,136 to 155 °C,
COc1cc(-c2nc(-c3ccc(F)nc3)[nH]c2Cl)ccc1OCc1ncccc1F [Example 212],2.22,76.9 µg/mL,0.5 µg/mL,161 to 163 °C,
COc1cc(OCn2cccn2)ccc1-c1nc(-c2ccc(Cl)nc2)[nH]c1Cl [Example 213],2.04,79.7 µg/mL,2.1 µg/mL,166 to 169 °C,

# Reference: US10570117B2, “Phenylimidazole compound” (Otsuka Pharmaceutical Factory, Inc., priority 2015, dated 2020)
